Test system: H3677 melanoma cells
Assay: in vitro cytotoxicity assay with prodrug C-Mel (alamarBlue)
Type: cell-based
Conditions: Homo sapiens
Protocol: H3677 cells were plated into 96 well microtiter plates (5×10^3 cells/well in 100 μl of RPMI 1640 media (Invitrogen) with 10% fetal bovine serum) and allowed to adhere overnight. The cells were treated with FP95, FP990 or FP999 fusion (see Table 2) proteins at 10 nM. […] Melphalan was also added at the same concentrations to cells treated with medium alone. After 1 hour at 37° C. cells were washed three times with medium and incubated for 96 hours at 37° C. The cells were then incubated with 10% alamarBlue™ for 3 hours at 37° C. and excitation was measured in an ELISA plate reader at 570 nm.
The cells were treated with 10 nM L49-sFv-bL, unbound material was washed off and serial dilutions of C-Mel were added. C-Mel and the active drug, melphalan, were also applied to cells treated with media alone. Cell viability was measured using the redox indicator alamarBlue™.

With `N[C@@H](Cc1ccc(N(CCCl)CCCl)cc1)C(=O)O` [melphalan] as the molecule, how does the IC50 read?
Its IC50 is about 5 µM.

From US20060160174A1, “Modified l49-sfv exhibiting increased stability and methods of use thereof” (priority 2002, published 2006)
